Key:
U87 glioblastoma cells [1] = assay: Cell viability by MTT assay; assay type: cell-based; conditions: 24 h; for IC50: read-out: IC50, growth inhibition of U87 glioblastoma cells
Protocol: U87 glioblastoma cells were obtained from American Type Culture Collection (ATCC, USA) and maintained in Dulbecco's Modified Eagle's Medium (DMEM) supplemented with 10% fatal bovine serum (FBS) in 5% CO2 at 37°C. Cells were treated with various concentrations of PLAB dissolved in DMSO with a final DMSO concentration of 1% or with DMSO alone for 24 h. DMSO-treated cells were used as control.
Cell viability was assessed by MTT assay and live/dead assay as described by us previously. Briefly U87 cells were treated with various concentrations of PLAB (1 to 100 μM) or Doxorubicin (0.25 to 20 μM) for 24 h. Following treatment, the MTT reagent was added (500 μg/mL) and cells were further incubated at 37°C for 4 h. Subsequently 150 μL DMSO was added to dissolve farmazan crystals and absorbance was measured at 570 nm in a microplate reader (Thermo Scientific). Results were expressed as the percentage of MTT reduction, assuming that the absorbance of control cells was 100%.

U87 glioblastoma cells [2] = assay: Live/dead assay, calcein AM and PI, flow cytometry; assay type: cell-based; conditions: 24 h, read-out: viability of U87 glioblastoma cells (live/dead assay)
Protocol: Furthermore, live and dead cells were quantified using the fluorescent probes calcein AM and PI. Calcein AM is cell membrane permeable and stains only viable cells, whereas PI is cell membrane impermeable and stains only dead cells. After treatment, cells were collected, washed with phosphate buffered saline (PBS) and incubated with PBS solution containing 2 μM calcein AM and 4 μM PI in the dark for 20 min at room temperature. After washing, cells were resuspended in PBS and analyzed for the fluorescence of calcein and PI by flow cytometry (Beckman Coulter, Epics XL).

U87 glioblastoma cells [3] = assay: Nuclear morphology / DNA fragmentation by Hoechst 33258 staining; assay type: cell-based; conditions: 5 and 10 μM, 24 h, Hoechst 33258, dose-dependent
Protocol: After treatment with 5 and 10 μM PLAB for 24 h, U87 cells were collected by centrifugation at 1500 rpm for 5 min, washed twice with PBS and fixed with 4% paraformaldehyde at room temperature for 30 min. After centrifugation, cells were washed with PBS, stained with Hoechst 33258 (50 μg/mL) and incubated at 37°C for 30 min. At the end of incubation, cells were washed and resuspended in PBS for the observation of nuclear morphology under fluorescence microscope (Olympus 1 × 71). At the end, 100 nuclei from control and PLAB-treated groups were counted microscopically for the percentage of cleaved nuclei.

U87 glioblastoma cells [4] = assay: Flow cytometry analysis of apoptosis (Annexin V/PI); assay type: cell-based; conditions: 24 h, in % (unit assumed)
Protocol: U87 cells were treated with 5 and 10 μM PLAB in the presence or absence of z-VAD-fmk and PFTα for 24 h. After treatment, both adherent and floating cells were collected, washed with PBS, and resuspended in 200 μL of binding buffer containing 5 μL Annexin V and put in the dark for 10 min according to the kit instructions (Beyotime, Shanghai, China). After incubation, cells were labeled with 10 μL PI and samples were immediately analyzed by flow cytometry (Beckman Coulter, Epics XL).

U87 glioblastoma cells [5] = assay: Flow cytometry analysis of cell cycle (PI); assay type: cell-based; conditions: 24 h; for cells in G2/M phase: Mean ± SEM, n = 3, control 17.63 ± 2.06
Protocol: U87 cells were treated with 5 and 10 μM PLAB for 24 h. Following treatment, cells were harvested, washed with PBS, and fixed with 70% ethanol at 4°C for overnight. After washing twice with PBS, cells were stained with a solution containing 50 μg/mL PI and 100 μg/mL RNase A for 30 min in the dark, at room temperature. The DNA contents were analyzed by flow cytometry (Beckman Coulter, Epics XL).

[6] = tested on: polymeric tubulin, cyclin B1, CDK1/Cdc2 in U87 glioblastoma cells; assay: Western blot of G2/M phase cell cycle regulators; assay type: cell-based; conditions: 10 μM PLAB, 3 μM colchicine, 24 h
Protocol: (§1) After drug treatment, adherent and floating cells were collected and proteins were isolated as described previously. Nuclear and cytosolic proteins were extracted using cytosolic and nuclear extraction kit (Keygen, China) according to the manufacturer's instructions. 40 μg proteins were electrophoresed on 10% SDS-PAGE and transferred to PVDF membrane. After blocking with 5% (w/v) nonfat milk and washing with Tris-buffered saline-Tween solution (TBST), membranes were incubated overnight at 4°C with p53 (1 : 1000), BCL-2 (1 : 1000), Bax (1 : 300), Cytochrome c (1 : 200), Caspase-3 (1 : 500), Tubulin (1 : 500), Cyclin B1 (1 : 300), Cdc2 (1 : 300), β-actin (1 : 400), and AIF (1 : 1000) antibodies, respectively. After washing, the blots were incubated with horseradish peroxidase-conjugated goat anti-rabbit IgG or goat anti-mouse IgG or rabbit anti-goat IgG secondary antibodies (1 : 1000, Santa Cruz) for 1 h at room temperature. After washing with TBST, signals were detected using ECL plus chemiluminescence kit on X-ray film (Millipore Corporation, Billerica, USA).
Briefly the cell pellet was resuspended in 0.4 mL monomeric extraction buffer (20 mM Tris-HCl, pH 6.8, 0.14 M NaCl, 1 mM MgCl2, 1 mM EGTA, 0.5% Nonidet P-40 (NP-40), 0.5 mM PMSF, and 4 μg/mL paclitaxel), centrifuge at 12,000 ×g for 10 min and supernatant was removed. The pellets containing polymeric tubulin were resuspended in WIP cell lysis reagent (BIOSS, Beijing Biosynthesis Biotechnology Co., Ltd.) for 30 min and the supernatants (polymeric tubulins) were collected by centrifugation at 12,000 ×g for 10 min. The polymeric tubulins were subjected to Western blot analysis.

[7] = tested on: p53, Bcl-2, Bax, Caspase-3, PARP, cytochrome c, AIF in U87 glioblastoma cells; assay: Western blot of apoptosis regulators; assay type: cell-based; conditions: 24 h
Protocol: as §1

Kunming mice = assay: In vivo organ toxicity (liver, kidneys, body weight, serum biomarkers); parameters: species or system mouse; conditions: 25 mg/kg intraperitoneally daily for 14 days
Protocol: In vivo studies were conducted on 12-14 week old Kunming mice weighing 43-45 g. The mice were maintained in a specific pathogen-free grade animal facility on a 12 h light/dark cycles at 25 ± 2°C. Mouse procedures were approved by the Experimental Animal Committee of Jilin University. Mice were divided into two groups. Group A (n = 5) administered with 50 μL DMSO intraperitoneally; Group B (n = 5) administered with PLAB (25 mg/kg body weight) in 50 μL DMSO intraperitoneally. The experiment was conducted over a period of two weeks. DMSO or drug was administered daily for 14 days, once a day. At the first and last day of the experiment, the body weight of each mouse was measured. At the end of experiment, mice were anesthetized using Pentobarbital sodium (50 mg/kg ip), blood was collected via cardiac puncture, allowed to clot for 10 min, centrifuge at 1000 ×g for 10 min at room temperature. Serum was separated and stored at -20°C until analysis. The liver and kidneys were excised and processed for hematoxylin and eosin staining followed standard procedures. The toxicological effect of PLAB on liver function was assessed by measuring the serum levels of AST, ALT and TBIL. Nephrotoxicity was determined by measuring the serum levels of BUN and Cr. These biochemical parameters were determined by an automated biochemical analyzer ([…] 7170, Japan).

tumor in nude mice = conditions: 15 mg/kg and 25 mg/kg; ref Wong et al. [14]; cited from earlier work

COc1cccc2c1C(=O)c1c(O)c3c(c(O)c1C2=O)C[C@@](O)(C(=O)CO)C[C@@H]3O[C@H]1C[C@H](N)[C@H](O)[C@H](C)O1 [Doxorubicin, reference compound]
IC50 (U87 glioblastoma cells [1]): 1.8 µM

COC(=O)C1=CC[C@@]23CC[C@@H]([C@@](C)(/C=C/C=C(\C)C(=O)O)OC2=O)[C@@]3(OC(C)=O)CC1 [PLAB, Pseudolaric acid B]
inhibition at 100 µM (U87 glioblastoma cells [1]; 100 μM, read-out: inhibition rate): > 85% | IC50 (U87 glioblastoma cells [1]): ~10 µM | viability at 5 µM (U87 glioblastoma cells [2]): 74.7 ± 1.83% | viability at 10 µM (U87 glioblastoma cells [2]): 56.9 ± 3.47% | nuclear morphological changes (U87 glioblastoma cells [3]): induced obvious nuclear morphological changes including nuclear shrinkage and DNA fragmentation | apoptosis rate (U87 glioblastoma cells [4]; 5 μM, Mean ± SEM, n = 3, control 2.52 ± 0.49): 24.43 ± 1.50 | apoptosis rate (U87 glioblastoma cells [4]; 10 μM PLAB with general caspase inhibitor z-VAD-fmk (20 μM)): 16.92 ± 1.30 | apoptosis rate (U87 glioblastoma cells [4]; 10 μM PLAB with p53 inhibitor PFTα (20 μM)): 33.42 ± 2.85 | apoptosis rate (U87 glioblastoma cells [4]; 10 μM, Mean ± SEM, n = 3, control 2.52 ± 0.49): 50.12 ± 3.42 | cells in G2/M phase (U87 glioblastoma cells [5]; 5 μM): 42.25 ± 2.95 | cells in G2/M phase (U87 glioblastoma cells [5]; 10 μM): 67.32 ± 1.83 | effect of caspase inhibitor on PLAB-induced mitotic arrest (U87 glioblastoma cells [5]; PLAB with z-VAD-fmk (20 μM)): did not prevent mitotic arrest | expression of Cdk1 (Cdc2) [6]: no change in the expression of Cdk1 (Cdc2) | expression of cyclin B1 [6]: increased the expression of cyclin B1 | expression of polymeric tubulin (tubulin polymerization) [6]: downregulated polymeric tubulin | PARP cleavage [7]: cleavage of PARP into 85 kDa protein | caspase-3 cleavage [7]: cleaved the caspase-3 into 17 kDa and 12 kDa proteins | expression of Bax [7]: increased expression of Bax | expression of Bcl-2 [7]: remarkably decreased | expression of cytochrome c in cytosol ([7]; cytosolic proteins): increased the expression of cytochrome c in cytosol | expression of p53 ([7]; dose-dependent): markedly increased the expression of p53 | AIF nuclear translocation ([7]; nuclear proteins): increased the expression of AIF in nucleus dose-dependently | histopathological changes in liver and kidneys (Kunming mice; hematoxylin and eosin staining): No obvious morphological changes | TBIL, serum (Kunming mice; n = 5, Mean ± SEM, control 1.0 ± 0.12, n.s.): 1.2 ± 0.26 n.s. μmol/L | BUN, serum (Kunming mice; n = 5, Mean ± SEM, control 10.94 ± 3.01, n.s.): 9.45 ± 2.53 n.s. mmol/L | Cr, serum (Kunming mice; n = 5, Mean ± SEM, control 27.4 ± 2.17, n.s.): 36.5 ± 1.99 n.s. μmol/L | ALT, serum (Kunming mice; n = 5, Mean ± SEM, control 47.30 ± 3.70, n.s.): 55.45 ± 4.35 n.s. U/L | AST, serum (Kunming mice; n = 5, Mean ± SEM, control 79 ± 5.50, n.s.): 87.66 ± 4.17 n.s. U/L | change in body weight of mice (Kunming mice; versus control group): No obvious change in body weight | growth of tumor in nude mice (tumor in nude mice): significantly inhibited the growth of tumor | toxicity / body weight loss in nude mice (tumor in nude mice): without any sign of toxicity or body weight loss
